The target in assay [1] is T1, Adenosine receptor A1 (Bos taurus, UniProt P28190).
T1 sequence (P28190 whole entry): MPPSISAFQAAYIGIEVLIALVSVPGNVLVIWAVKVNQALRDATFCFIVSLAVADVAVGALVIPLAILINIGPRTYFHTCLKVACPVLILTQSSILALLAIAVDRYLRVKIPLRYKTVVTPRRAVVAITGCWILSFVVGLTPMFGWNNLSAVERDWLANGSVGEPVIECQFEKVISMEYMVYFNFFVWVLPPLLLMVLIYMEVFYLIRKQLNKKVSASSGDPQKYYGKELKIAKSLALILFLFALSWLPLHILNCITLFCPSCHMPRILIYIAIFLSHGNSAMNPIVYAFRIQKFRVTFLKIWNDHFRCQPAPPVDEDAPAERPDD
Description: Inhibitory activity at Adenosine A1 receptor by inhibition of [3H]CHA binding to bovine brain cortical membranes.

The target of assay [2] is Adenosine receptor A2a (Homo sapiens, UniProt P29274).
Description: Inhibitory activity at Adenosine A2A receptor by inhibition of [3H]-CGS- 21680 binding to bovine striatal membranes.
The species named for assay [3] is Rattus norvegicus. Nature of the assay: The compound was tested for the concentration to inhibit 50% of Adenylyl cyclase activity in rat cortical membranes. Type of assay: functional.
The species entered for assay [4] is Rattus norvegicus. The assay is described as follows: Maximal % inhibition of adenylyl cyclase activity in rat cortical membranes at a concentration of 10 uM. The assay is classed as functional.
The target of assay [5] is T2, Adenosine receptor A3 (Rattus norvegicus, UniProt P28647).
T2 sequence (P28647 whole entry): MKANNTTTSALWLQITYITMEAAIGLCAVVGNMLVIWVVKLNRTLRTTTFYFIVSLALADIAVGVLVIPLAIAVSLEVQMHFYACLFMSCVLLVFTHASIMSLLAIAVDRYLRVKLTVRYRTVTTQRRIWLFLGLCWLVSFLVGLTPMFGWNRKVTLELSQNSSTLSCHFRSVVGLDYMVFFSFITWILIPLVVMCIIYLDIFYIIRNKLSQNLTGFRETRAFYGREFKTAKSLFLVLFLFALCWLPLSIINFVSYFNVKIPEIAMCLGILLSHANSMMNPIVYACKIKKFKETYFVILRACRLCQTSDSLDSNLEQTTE
The assay is described as follows: Inhibitory activity against Adenosine A3 receptor by inhibiting specific [3H](R)-PIA binding to rat testis membranes. Set-up: species or system Membrane.

For assay [6], the target named is T3, Adenosine receptor A3 (Rattus norvegicus) (UniProt P28647).
T3 sequence (whole entry): T2 sequence (P28647 whole entry)
The assay is described as follows: Inhibitory activity against Adenosine A3 receptor by inhibition of [3H](R)-PIA binding to rat testis membranes. Type of assay: cell membranes. To be noted: Membrane, concentration not given here.

Assay [7] is described as follows: Inhibitory selectivity at Adenosine A3 receptor compared to Adenosine 2A receptor.
A short description of assay [8]: Inhibitory selectivity at Adenosine 2A receptor compared to Adenosine 1 receptor.
A short description of assay [9]: Inhibitory selectivity at Adenosine A3 receptor compared to Adenosine 1 receptor.
The species named for assay [10] is Rattus norvegicus. Nature of the assay: (§1) Inhibitory activity against Adenylyl cyclase in rat cortical membranes in the presence of 2''-Me-CPA at concentration 50 nM. Type of assay: functional.
The species named for assay [11] is Rattus norvegicus. The assay is described as follows: (§2) Inhibitory activity against Adenylyl cyclase in rat cortical membranes in the presence of 2''-Me-CCPA at concentration 30 nM. Type of assay: functional.
The species entered for assay [12] is Rattus norvegicus. The assay is described as follows: (§3) Inhibitory activity against Adenylyl cyclase in rat cortical membranes in the presence of 2''-IB-Ado at concentration 30 nM. The assay is classed as functional.
The species named for assay [13] is Rattus norvegicus. The description is as §1. Type of assay: functional. The source holds these as a separate data set.
For assay [14], the species on record is Rattus norvegicus. The assay is described as §3. The assay is classed as functional. The source holds these as a separate data set.
The species entered for assay [15] is Rattus norvegicus. Described as §2. Type of assay: functional. This is another data set of the same source.

Adenosine receptor A2a, sequence (P29274 whole entry): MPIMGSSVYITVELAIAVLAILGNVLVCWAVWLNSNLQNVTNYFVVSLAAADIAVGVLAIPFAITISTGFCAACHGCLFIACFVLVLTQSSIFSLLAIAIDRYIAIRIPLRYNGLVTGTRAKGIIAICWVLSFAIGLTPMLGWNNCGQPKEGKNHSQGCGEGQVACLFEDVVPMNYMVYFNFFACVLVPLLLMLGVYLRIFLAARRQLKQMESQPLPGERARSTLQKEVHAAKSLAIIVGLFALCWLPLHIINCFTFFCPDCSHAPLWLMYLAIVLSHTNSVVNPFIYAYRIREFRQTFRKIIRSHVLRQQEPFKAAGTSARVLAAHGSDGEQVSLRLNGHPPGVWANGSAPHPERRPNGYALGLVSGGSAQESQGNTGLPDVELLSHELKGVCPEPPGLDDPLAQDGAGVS

Consider `C[C@H](Cc1ccccc1)Nc1ncnc2c1ncn2[C@@H]1O[C@H](CO)[C@@H](O)[C@@]1(C)O`, for which the inhibitory constant (Ki) (in general, the dissociation constant of the complex between target and ligand, obtained from inhibition or displacement) in assay [1] came out at 4.7 nM; in [2] it was 7440 nM; in assay [5] it was 1080 nM. The 50% inhibitory concentration (IC50) (as a rule, the midpoint of a concentration-inhibition curve) in assay [3] was found to be 1.6 nM. The Max inhibition in assay [4] amounted to 13.7%.
With `C[C@@]1(O)[C@H](O)[C@@H](CO)O[C@H]1n1cnc2c(NC3CCCC3)ncnc21`, the Ki was determined as 9.5 nM in assay [1] and 208 nM in [5]. Half-maximal inhibition in assay [3] (IC50) required 2.3 nM. This molecule displayed a Max inhibition in [4] of 11%.
In [2], `OC[C@H]1O[C@@H](n2cnc3c(NC4CCCC4)ncnc32)[C@H](O)[C@@H]1O` [N6-CYCLOPENTYLADENOSINE] returned an inhibitory constant (Ki) of 385 nM. In assay [3], this molecule had an IC50 of 11.6 nM. Moreover, the Max inhibition in assay [4] came out at 15.5%.
As to `C[C@@H](Cc1ccccc1)Nc1ncnc2c1ncn2[C@@H]1O[C@H](CO)[C@@H](O)[C@H]1O` [(S)-PIA], in assay [5], the affinity corresponds to a Ki of 241 nM.
Consider `C[C@@]1(O)[C@H](O)[C@@H](CO)O[C@H]1n1cnc2c(N)ncnc21`, for which, in assay [6], the inhibition (commonly how much of the control response was suppressed) worked out at 0%.
Turning to `CCNC(=O)[C@H]1O[C@@H](n2cnc3c(N)ncnc32)[C@](C)(O)[C@@H]1O`, the Selectivity came to 2.5 in [7], 1.5 in assay [8] and 3.8 in assay [9]. Further, the inhibition constant Ki in assay [1] turned out to be 142 nM; in assay [2] it was 218 nM; in [5], 550 nM.
As for `C[C@@]1(O)[C@H](O)[C@@H](CO)O[C@H]1n1cnc2c(NC3CCCC3)nc(Cl)nc21`, the inhibition constant Ki in assay [1] came to 1.8 nM; in assay [5], 5000 nM. This molecule also returned an IC50 in [3] of 13.1 nM. For the same molecule, the Max inhibition in assay [4] worked out at 15.1%.
The molecule `C[C@H](Cc1ccccc1)Nc1ncnc2c1ncn2[C@@H]1O[C@H](CO)[C@@H](O)[C@H]1O` [(R)-PIA] came in with a Ki in assay [5] of 53 nM.
Consider `CNC(=O)[C@H]1O[C@@H](n2cnc3c(NCc4cccc(I)c4)ncnc32)[C@H](O)[C@@H]1O` [IB-MECA], for which, in assay [1], the inhibition constant (Ki) came to 33.1 nM.
`OC[C@H]1O[C@@H](n2cnc3c(NC4CCCC4)nc(Cl)nc32)[C@H](O)[C@@H]1O`: the Ki amounted to 0.35 nM in assay [1] and 580 nM in assay [2].
With `C[C@@]1(O)[C@H](O)[C@@H](CO)O[C@H]1n1cnc2c(NCc3cccc(I)c3)ncnc21`, in [1], affinity was put at a Ki of 20.1 nM. The IC50 in assay [3] was determined as 1.6 nM. In assay [4], this molecule yielded a Max inhibition of 10.9%.
In assay [1], `OC[C@H]1O[C@@H](n2cnc3c(NCc4cccc(I)c4)ncnc32)[C@H](O)[C@@H]1O` had an inhibition constant Ki of 18.6 nM.
Take `OC[C@H]1O[C@@H](n2cnc3c(NC4CCCCC4)ncnc32)[C@H](O)[C@@H]1O`: the IC50 in assay [10] turned out to be 1.4 nM; in assay [3], 1.4 nM; in [11], 1.6 nM; in assay [12], 1.5 nM. The Max inhibition in assay [13] came out at 16.2%; in assay [14], 16%; in assay [4] it was 16.2%; in assay [15], 16.1%.
Turning to `C[C@@H](Cc1ccccc1)Nc1ncnc2c1ncn2C1O[C@H](CO)[C@@H](O)[C@@]1(C)O` (stereo partly drawn), the inhibitory constant (Ki) in assay [1] was determined as 50 nM; in assay [5], 10000 nM.
Turning to `CNC(=O)[C@H]1OC(n2cnc3c(NCc4cccc(I)c4)ncnc32)[C@](C)(O)[C@@H]1O` (stereo partly drawn), the values for the Selectivity in assay [7], in assay [8] and in [9] were 0.2, 6 and 1.2, respectively. In addition, the inhibition constant (Ki) in assay [1] is 254 nM; in [2], 1530 nM; in assay [5], 320 nM.
As for `Nc1nc(Cl)nc2c1ncn2[C@@H]1O[C@H](CO)[C@@H](O)[C@H]1O`, the results for the Selectivity in assay [7], in assay [8] and in assay [9] were 26.6, 5.9 and 158, respectively. In addition, the inhibitory constant (Ki) in [1] amounted to 20.2 nM; in [2] it was 120 nM; in assay [5], 3200 nM.
`C[C@]1(O)C(n2cnc3c(N)nc(Cl)nc32)O[C@H](CO)[C@H]1O` (stereo partly drawn) showed a Ki in assay [1] of 533 nM. For the same molecule, the inhibition in assay [6] stood at 10%.
Taken in the same sequence, the figures for `C[C@@]1(O)[C@@H](CO)O[C@@H](n2cnc3c(N)ncnc32)[C@@H]1O` were 49500 nM and 8%.
